Data published in ChEMBL document CHEMBL4828726, “Modification of 5-methylphenanthridium from benzothiazoles to indoles as potent FtsZ inhibitors: Broadening the antibacterial spectrum toward vancomycin-resistant enterococci” (Eur J Med Chem, 2021).
Converted amounts (≈) assume the structure as drawn. The source made the active and inactive calls. No cut-off for these calls is given here.

Legend:
[1] = system: Staphylococcus epidermidis; assay: Antibacterial activity against penicillin-resistant Staphylococcus epidermidis assessed as inhibition of bacterial growth measured after 20 hrs by two-fold microdilution assay; assay type: functional
Bacillus subtilis [2] = assay: Antibacterial activity against penicillin-susceptible Bacillus subtilis ATCC 9372 assessed as inhibition of bacterial growth measured after 20 hrs by two-fold microdilution assay; assay type: functional
Streptococcus pyogenes [3] = assay: Antibacterial activity against erythromycin-resistant Streptococcus pyogenes assessed as inhibition of bacterial growth measured after 20 hrs by two-fold microdilution assay; assay type: functional
Enterococcus faecalis [4] = assay: Bactericidal activity against Vancomycin-susceptible Enterococcus faecalis ATCC 29212 assessed as inhibition of bacterial growth measured after 20 hrs by two-fold microdilution assay; assay type: functional
Enterococcus faecium [5] = assay: Bactericidal activity against Vancomycin-resistant Enterococcus faecium ATCC 51559 assessed as inhibition of bacterial growth measured after 20 hrs by two-fold microdilution assay; assay type: functional
Bacillus subtilis [6] = assay: Bactericidal activity against penicillin-susceptible Bacillus subtilis ATCC 9372 assessed as inhibition of bacterial growth measured after 20 hrs by two-fold microdilution assay; assay type: functional
[7] = target: T1, Cell division protein FtsZ (Bacillus subtilis (strain 168)) (UniProt P17865); assay: Inhibition of Bacillus subtilis FtsZ assessed as promotion of FtsZ polymerization at 10 ug/ml measured after […] by fluorescence spectrometer based light scattering assay; settings: dose 10.0 µg/ml
T1 sequence (whole entry): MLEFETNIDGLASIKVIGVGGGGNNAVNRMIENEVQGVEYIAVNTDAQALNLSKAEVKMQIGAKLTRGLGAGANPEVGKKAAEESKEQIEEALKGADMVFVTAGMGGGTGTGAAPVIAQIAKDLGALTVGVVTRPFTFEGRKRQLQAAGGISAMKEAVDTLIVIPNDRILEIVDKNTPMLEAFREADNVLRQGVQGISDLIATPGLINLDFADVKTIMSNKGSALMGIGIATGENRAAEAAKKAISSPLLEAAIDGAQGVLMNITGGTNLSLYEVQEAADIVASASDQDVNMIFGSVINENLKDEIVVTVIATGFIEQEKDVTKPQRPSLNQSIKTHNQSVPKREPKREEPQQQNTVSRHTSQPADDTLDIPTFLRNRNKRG

Streptococcus pyogenes [8] = assay: Antibacterial activity against erythromycin-susceptible Streptococcus pyogenes assessed as inhibition of bacterial growth measured after 20 hrs by two-fold microdilution assay; assay type: functional
Enterococcus faecium [9] = assay: Bactericidal activity against Vancomycin-susceptible Enterococcus faecium ATCC 19434 assessed as inhibition of bacterial growth measured after 20 hrs by two-fold microdilution assay; assay type: functional
Bacillus pumilus [10] = assay: Bactericidal activity against penicillin-susceptible Bacillus pumilus CMCC63202 assessed as inhibition of bacterial growth measured after 20 hrs by two-fold microdilution assay; assay type: functional
Escherichia coli = assay: Antibacterial activity against penicillin-susceptible Escherichia coli ATCC 25922 assessed as inhibition of bacterial growth measured after 20 hrs by two-fold microdilution assay; assay type: functional
Pseudomonas aeruginosa = assay: Antibacterial activity against penicillin-susceptible Pseudomonas aeruginosa ATCC 27853 assessed as inhibition of bacterial growth measured after 20 hrs by two-fold microdilution assay; assay type: functional
Staphylococcus aureus [11] = assay: Bactericidal activity against methicillin-resistant Staphylococcus aureus ATCC43300 assessed as inhibition of bacterial growth measured after 20 hrs by two-fold microdilution assay; assay type: functional
Staphylococcus aureus [12] = assay: Bactericidal activity against erythromycin-susceptible Staphylococcus aureus ATCC 25923 assessed as inhibition of bacterial growth measured after 20 hrs by two-fold microdilution assay; assay type: functional
Bacillus pumilus [13] = assay: Antibacterial activity against penicillin-susceptible Bacillus pumilus CMCC63202 assessed as inhibition of bacterial growth measured after 20 hrs by two-fold microdilution assay; assay type: functional
Staphylococcus aureus [14] = assay: Antibacterial activity against Staphylococcus aureus ATCC 25923 assessed as decrease of bacterial growth at 32 ug/ml measured up to 24 hrs by Time kill assay; assay type: functional, organism-based; settings: dose 32.0 µg/ml, time hrs <=24
Staphylococcus aureus [15] = assay: Bactericidal activity against penicillin-resistant Staphylococcus aureus ATCC 31007 assessed as inhibition of bacterial growth measured after 20 hrs by two-fold microdilution assay; assay type: functional
Enterococcus faecium [16] = assay: Antibacterial activity against Vancomycin-susceptible Enterococcus faecium ATCC 19434 assessed as inhibition of bacterial growth measured after 20 hrs by two-fold microdilution assay; assay type: functional
Enterococcus faecalis [17] = assay: Bactericidal activity against Vancomycin-resistant Enterococcus faecalis ATCC 51299 assessed as inhibition of bacterial growth measured after 20 hrs by two-fold microdilution assay; assay type: functional
Enterococcus faecium [18] = assay: Antibacterial activity against Vancomycin-resistant Enterococcus faecium ATCC 51559 assessed as inhibition of bacterial growth measured after 20 hrs by two-fold microdilution assay; assay type: functional
Enterococcus faecium [19] = assay: Ratio of MBC to MIC against Vancomycin-resistant Enterococcus faecium ATCC 51559; assay type: functional
Enterococcus faecalis [20] = assay: Ratio of MBC to MIC against Vancomycin-susceptible Enterococcus faecalis ATCC 29212; assay type: functional
Staphylococcus aureus [21] = assay: Antibacterial activity against methicillin-resistant Staphylococcus aureus ATCC43300 assessed as inhibition of bacterial growth measured after 20 hrs by two-fold microdilution assay; assay type: functional
Staphylococcus aureus [22] = assay: Antibacterial activity against clinical isolate Staphylococcus aureus C1 assessed as inhibition of bacterial growth measured after 20 hrs by two-fold microdilution assay; assay type: functional
Bacillus pumilus [23] = assay: Ratio of MBC to MIC against penicillin-susceptible Bacillus pumilus CMCC63202; assay type: functional
Staphylococcus aureus [24] = assay: Ratio of MBC to MIC against erythromycin-susceptible Staphylococcus aureus ATCC 25923; assay type: functional
Staphylococcus aureus [25] = assay: Ratio of MBC to MIC against penicillin-resistant Staphylococcus aureus ATCC 31007; assay type: functional
Staphylococcus aureus [26] = assay: Antibacterial activity against penicillin-resistant Staphylococcus aureus ATCC 31007 assessed as inhibition of bacterial growth measured after 20 hrs by two-fold microdilution assay; assay type: functional
Bacillus subtilis [27] = assay: Ratio of MBC to MIC against penicillin-susceptible Bacillus subtilis ATCC 9372; assay type: functional
Enterococcus faecalis [28] = assay: Antibacterial activity against Vancomycin-resistant Enterococcus faecalis ATCC 51299 assessed as inhibition of bacterial growth measured after 20 hrs by two-fold microdilution assay; assay type: functional
Enterococcus faecalis [29] = assay: Antibacterial activity against Vancomycin-susceptible Enterococcus faecalis ATCC 29212 assessed as inhibition of bacterial growth measured after 20 hrs by two-fold microdilution assay; assay type: functional
Enterococcus faecium [30] = assay: Ratio of MBC to MIC against Vancomycin-susceptible Enterococcus faecium ATCC 19434; assay type: functional
Staphylococcus aureus [31] = assay: Ratio of MBC to MIC against methicilline-resistant Staphylococcus aureus ATCC43300; assay type: functional
Staphylococcus aureus [32] = assay: Antibacterial activity against erythromycin-susceptible Staphylococcus aureus ATCC 25923 assessed as inhibition of bacterial growth measured after 20 hrs by two-fold microdilution assay; assay type: functional

Compound | MIC [1] [µg/mL] | MIC (Bacillus subtilis [2]) [µg/mL] | MIC (Streptococcus pyogenes [3]) [µg/mL] | MBC (Enterococcus faecalis [4]) [µg/mL] | MBC (Enterococcus faecium [5]) [µg/mL] | MBC (Bacillus subtilis [6]) [µg/mL] | MIC (Streptococcus pyogenes [8]) [µg/mL] | MBC (Enterococcus faecium [9]) [µg/mL] | MBC (Bacillus pumilus [10]) [µg/mL] | MIC (Escherichia coli) [µg/mL] | MIC (Pseudomonas aeruginosa) [µg/mL] | MBC (Staphylococcus aureus [11]) [µg/mL] | MBC (Staphylococcus aureus [12]) [µg/mL] | MIC (Bacillus pumilus [13]) [µg/mL] | MBC (Staphylococcus aureus [15]) [µg/mL] | MIC (Enterococcus faecium [16]) [µg/mL] | MBC (Enterococcus faecalis [17]) [µg/mL] | MIC (Enterococcus faecium [18]) [µg/mL] | MIC (Staphylococcus aureus [21]) [µg/mL] | MIC (Staphylococcus aureus [22]) [µg/mL] | further results
CC(=O)NC[C@H]1CN(c2ccc(N3CCOCC3)c(F)c2)C(=O)O1 [LINEZOLID] | 4 (≈ 11.9 µM) | 0.5 (≈ 1.48 µM) | 1 (≈ 2.96 µM) | 64 (≈ 190 µM) | 64 (≈ 190 µM) | 64 (≈ 190 µM) | 1 (≈ 2.96 µM) | > 64 | 16 (≈ 47.4 µM) | > 64 | > 64 | 8 (≈ 23.7 µM) | 128 (≈ 379 µM) | 2 (≈ 5.93 µM) | 16 (≈ 47.4 µM) | 4 (≈ 11.9 µM) | 64 (≈ 190 µM) | 4 (≈ 11.9 µM) | – | – | inhibition [7]: inactive; Activity (Staphylococcus aureus [14]): Active
Cc1ccc2c[n+](C)c3ccc(-c4ccc5ccn(Cc6ccc(OC(F)(F)F)cc6)c5c4)cc3c2c1.[Cl-] | 2 | 4 | 8 | 16 | 32 | 4 | 8 | 16 | 32 | > 64 | > 64 | 4 | 4 | 4 | 4 | 4 | 16 | 4 | 4 | 4 | Ratio (Enterococcus faecium [19]): 8; Ratio (Enterococcus faecalis [20]): 4; Ratio (Bacillus pumilus [23]): 8; Ratio (Staphylococcus aureus [24]): 2; Ratio (Staphylococcus aureus [25]): 1; MIC (Staphylococcus aureus [26]): 4 µg/mL; Ratio (Bacillus subtilis [27]): 1; MIC (Enterococcus faecalis [28]): 4 µg/mL; MIC (Enterococcus faecalis [29]): 4 µg/mL; Ratio (Enterococcus faecium [30]): 4; Ratio (Staphylococcus aureus [31]): 1; MIC (Staphylococcus aureus [32]): 2 µg/mL
C[n+]1cc2c3c(ccc2c2ccc4cc5c(cc4c21)OCO5)OCO3 [SANGUINARIUM] | 8 | 2 | 2 | > 64 | > 64 | > 128 | 2 | > 64 | 32 | 32 | > 64 | 128 | 128 | 4 | > 64 | 64 | > 64 | 32 | 8 | 4 | Ratio (Bacillus pumilus [23]): 8; Ratio (Staphylococcus aureus [24]): 32; MIC (Staphylococcus aureus [26]): 16 µg/mL; MIC (Enterococcus faecalis [28]): 32 µg/mL; MIC (Enterococcus faecalis [29]): 16 µg/mL; Ratio (Staphylococcus aureus [31]): 16; MIC (Staphylococcus aureus [32]): 4 µg/mL
